These results are taken from article PMC4850295, “Using a Genetically Encoded Sensor to Identify Inhibitors of Toxoplasma gondii Ca^2+ Signaling” (The Journal of Biological Chemistry, 2016).

SMILES strings stand for the structures. pIC50: −log10 of the molar value. Read-outs that look alike come from different tables or passages of the source.

The target of experiment [1] is T1, recombinant T. gondii PKG (cGMP-dependent protein kinase; protein kinase G) (Toxoplasma gondii, UniProt Q8MMZ7). Description: in vitro kinase assay (CycLex PKG assay kit). In kind it is biochemical. To be noted: 6.76 nM recombinant PKG.
T1 sequence (Q8MMZ7 whole entry): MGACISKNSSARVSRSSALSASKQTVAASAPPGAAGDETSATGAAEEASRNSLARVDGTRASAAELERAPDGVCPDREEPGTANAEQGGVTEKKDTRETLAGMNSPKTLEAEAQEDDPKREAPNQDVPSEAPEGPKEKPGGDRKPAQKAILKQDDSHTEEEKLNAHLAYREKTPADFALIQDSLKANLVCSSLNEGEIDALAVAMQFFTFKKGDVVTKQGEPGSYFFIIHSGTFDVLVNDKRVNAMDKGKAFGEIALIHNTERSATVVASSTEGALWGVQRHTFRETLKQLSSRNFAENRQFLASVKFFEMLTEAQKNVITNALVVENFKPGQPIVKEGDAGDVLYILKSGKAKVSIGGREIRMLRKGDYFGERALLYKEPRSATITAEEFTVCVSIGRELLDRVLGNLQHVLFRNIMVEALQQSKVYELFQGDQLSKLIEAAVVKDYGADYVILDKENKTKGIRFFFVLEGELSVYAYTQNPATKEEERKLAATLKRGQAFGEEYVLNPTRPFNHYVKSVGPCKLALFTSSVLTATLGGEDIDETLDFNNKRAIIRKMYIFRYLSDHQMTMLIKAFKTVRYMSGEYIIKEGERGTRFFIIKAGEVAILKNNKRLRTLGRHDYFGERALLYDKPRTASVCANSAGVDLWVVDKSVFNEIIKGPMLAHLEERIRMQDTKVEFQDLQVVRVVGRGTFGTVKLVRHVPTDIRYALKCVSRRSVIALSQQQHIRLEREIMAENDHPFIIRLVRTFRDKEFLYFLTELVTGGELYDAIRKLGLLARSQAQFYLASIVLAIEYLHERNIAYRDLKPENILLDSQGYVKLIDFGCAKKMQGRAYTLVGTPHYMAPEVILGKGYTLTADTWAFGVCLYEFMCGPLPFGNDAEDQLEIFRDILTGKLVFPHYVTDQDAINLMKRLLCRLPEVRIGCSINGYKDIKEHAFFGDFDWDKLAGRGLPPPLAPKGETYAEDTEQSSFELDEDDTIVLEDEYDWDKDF
Experiment [2] has as its target T1, recombinant T. gondii PKG (cGMP-dependent protein kinase; protein kinase G). Briefly: in vitro kinase assay (CycLex PKG assay kit). In kind it is biochemical.
For experiment [3], the system named is T2, GCaMP5-expressing T. gondii.
T2 construct: whole extracellular parasites expressing GCaMP5 Ca2+ sensor
Also noted: species or system GCaMP5-expressing Toxoplasma gondii, extracellular; GCaMP5 fluorescence (cytosolic Ca2+) after 100 uM zaprinast in compound-pretreated extracellular parasites, background-subtracted, relative to zaprinast alone. To be noted: 100 uM zaprinast stimulation, 10 min pretreatment, mean of two replicates, 0.23 h. Put shortly:
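Extracellular GCaMP5-expressing parasites in Ringer's solution were pretreated with compounds (single 10 μM dose, two biological replicates) for 10 min, then stimulated with 100 μM zaprinast at 37 °C for 4 min. Fluorescence read at 485/525 nm, basal subtracted, expressed as fold change relative to zaprinast-only parasites.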

Regarding `CN(C)Cc1ccn2c(-c3ccnc(N)n3)c(-c3ccc(F)cc3)nc2c1` [Cpd2, Compound 2], the “activity versus inhibitor concentration” value in experiment [1] was “presence of increasing concentrations of Inh1, Inh2, or the PKG inhibitor Cpd2”. Consider `Fc1ccc(-c2nn3ncccc3c2-c2ccnc(Nc3ccc4c(c3)OCCO4)n2)cc1` [Inh1], for which the pIC50 in experiment [2] is 6.24. In experiment [3], the “fold change in fluorescence relative to zaprinast alone” value is listed as -0.1251. For `Nc1nc(-c2ccc3c(c2)C(=Cc2cc(Br)c(O)c(Br)c2)C(=O)N3)cs1` [Inh2], in experiment [2], the pIC50 is 6.17. Moreover, the “fold change in fluorescence relative to zaprinast alone” value in experiment [3] came out at 0.1475.

For the molecule `Fc1ccc(-c2nc3n(c2-c2ccncc2)CCS3)cc1` [SKF-86002], in experiment [3] (10 µM), the “fold change in fluorescence relative to zaprinast alone” value was 1.092. Take `Fc1ccc(-c2c(-c3ccncc3)nc3n2CCS3)cc1` [SKF-86055]: the “fold change in fluorescence relative to zaprinast alone” value in experiment [3] worked out at 1.285.

Take `CCn1cnc2c(NCc3ccccc3)ncnc21` [SKF-96418]: the “fold change in fluorescence relative to zaprinast alone” value in experiment [3] turned out to be 0.8238. Still for that read-out and setting: the figure for `Nc1ncnc2c1ncn2-c1cccc2ccccc12` [SKF-97184] is 0.9854; for `COc1ccc(-n2cnc3c(N)ncnc32)cc1` [SKF-97236] it is 1.027; for `CCCCCc1nc2c(N)ncnc2n1CCCCC` [SKF-97255] it is 0.8987. On the same count and under the same terms, then `CC(C)(C)c1ccc(-n2cnc3c(N)ncnc32)cc1` [SKF-97263], with 1.008. Still for that read-out and setting: then `Nc1ncnc2c1nc(-c1ccccc1)n2-c1ccccc1` [SKF-97293], with 1.205; and `CC(C)(C)n1cnc2c(N)ncnc21` [SKF-97359], with 1.052.

`COc1cccc(-n2cnc3c(N)ncnc32)c1` [SKF-97416]: the “fold change in fluorescence relative to zaprinast alone” value in experiment [3] worked out at 1.043. Regarding `Cc1ccccc1-n1cnc2c(N)ncnc21` [SKF-97510], the “fold change in fluorescence relative to zaprinast alone” value in experiment [3] is on record as 1.09. Same read-out and setting: then `Nc1ncnc2c1ncn2-c1cccc(F)c1` [SKF-97560], with 1.042; and `CCC(CC)(CC)n1cnc2c(N)ncnc21` [SKF-97620], with 0.9821; and `Cn1cnc2c(N)ncnc21` [SKF-97623], with 1.06. On the same count and under the same terms, then `Fc1ccc(-c2c(-c3ccccn3)nc3n2CCS3)cc1` [SKF-104365], with 0.9062; and `COc1ccc(-c2nc3n(c2-c2ccncc2)CCC3)cc1` [SKF-104493-B2], with 0.9045; and `CSc1ccc(-c2nc3n(c2-c2ccncc2)CCC3)cc1` [SKF-105561], with 0.9692.

For the molecule `CS(=O)(=O)c1ccc(-c2nc3n(c2-c2ccncc2)CCC3)cc1` [SKF-105942], the “fold change in fluorescence relative to zaprinast alone” value in experiment [3] was 0.9941. The same measure, in the same setting: then `CCSc1ccc(-c2nc3n(c2-c2ccncc2)CCC3)cc1` [SKF-106164-A2], with 1.019.

A word on the pIC50: it is −log10 of the IC50, conventionally taken in molar units.
